Data as given in US20040019430A1, “Methods and systems for analyzing complex biological systems” (priority 2001, published 2004).

How the values were obtained:
[1] = test system: Saccharomyces cerevisiae wild type strain BY4743; assay: AF1 combined gene expression and metabolite data mapped to KEGG reactions and pathways; assay type: cell-based; details: yeast AF1
Source text: In AF1, two different technologies were utilized: gene expression analysis (for examination of mRNA expression) and metabolite analysis. […] As noted previously, existing metabolic databases may be helpful in practicing the methods and systems of the present invention, but many databases include limitations that make their use in data analysis and pathway mapping less than straightforward. […] This caveat to KEGG makes it difficult to pinpoint the correct pathway when attempting to link a gene to a specific pathway. […] The pathway score indicates how meaningful the mapping is, or how likely it is to be correctly indicative of the pathway involved in the perturbation under examination. The method provides a pathway score based on perturbation levels of genes and/or compounds and the information content of each gene and/or compound in the pathway, i.e., a pathway score indicates the extent to which other pathways are mapped to a gene/compound. For example, imagine that two genes are perturbed in a particular experiment. One gene maps to only one pathway, giving a high degree of probability that the perturbed pathway is the one identified in the mapping. The second gene maps to three pathways. In the later example, there is only one-third the probability that the pathway identified in the mapping is the one perturbed. The present invention provides a method for calculating the pathway scores, so that more weight is given to a score of a gene or compound that maps to only one pathway than to a score of a gene or compound that maps to multiple pathways. […] Where n=the total number of genes in the pathway; ipath—count=the number of pathways containing a gene; and j=the number of genes in the pathway that are perturbed. Another factor to be considered when weighting a pathway score is the degree of perturbation. Degree of perturbation can be calculated, for example, based on a number of standard deviations from a norm, and included in an equation such as the one shown above, so that not only the number of pathways is taken into account, but also accounts for the amount of gene transcript or compound present as compared to a control. Compounds were also linked to pathways using the KEGG database. KEGG links 676 compounds measured in AF1 to a total of 92 pathways. Of the 676 compounds under consideration, 77 were detected in the AF1 samples. […] The multiple mapping feature of KEGG makes it difficult to pinpoint the correct pathway when trying to link a compound to a specific pathway. […] A pathway score calculation is applied to the compounds to account for both information content (number of pathways a compound maps to) and perturbation level. The data were then combined to determine the number of reactions showing an enzyme and at least one compound perturbed, and to determine the number of pathways having at least one enzyme and one perturbed compound perturbed. The results of the analysis are represented in Tables 16 and 17, and were difficult to interpret, illustrating that the ability to draw conclusions from compound mapping to pathways is limited when absent additional data.

Magnaporthe grisea = assay type: cell-based
Arabidopsis thaliana [2] = assay: MOA1 biochemical (metabolite) profiling by LC-MS and GC-MS
[3] = test system: Arabidopsis thaliana plants; assay: SOA1 phenotypic analysis of herbicide-treated Arabidopsis plants (MIC, Tmic, leaf traits); assay type: in vivo; details: for Characteristic symptoms (phenotype): herbicide treated Arabidopsis; for Dev. leafCurling / Dev. leafTwisting / Dev. matureLeafAnthocyanins / Dev. matureLeafChlorosis / Dev. matureLeafNecrosis / Dev. newLeafAnthocyanins / Dev. newLeafChlorosis / Dev. newLeafNecrosis / Dev. pointedLeaves: numeric value standardized to mock treated; for Dev. leafWidth: numeric value standardized to the average response for the mock treated tissues; for Symptom Class: three-week-old Arabidopsis plants treated with herbicide, phenotype classes of FIG. 12
Arabidopsis thaliana [4] = assay: MOA1 phenotypic profiling of Arabidopsis sprayed with unknown and commercial herbicides; assay type: in vivo; details: Ward's method
[5] = test system: Saccharomyces cerevisiae wild type strain BY4743; assay: AF1 metabolite analysis (GC-MS, LC-MS) of yeast cells treated with antifungal drugs; assay type: cell-based; set-up: Fold Change: scale not given here
[6] = 250 μg/ml (partially inhibitory)

## OC(Cn1cncn1)(Cn1cncn1)c1ccc(F)cc1F [Fluconazole]
[1]
  # Reactions (title: Number Of Pathways Having at Least One Enzyme and One Compound Perturbed): 15

## CP(=O)(O)CCC(N)C(=O)O (centres unmarked) [Glufosinate]
Magnaporthe grisea
  Nitrogen sources M. grisea can utilize in presence of compound: only able to utilize glutamine and glutamate as nitrogen sources
Arabidopsis thaliana [2]; MOA1, 20 min and 1 hr after spraying
  Stress-related (commonly regulated) metabolites: Only a few, if any, stress-related metabolites were observed
[3]
  Dev. tMic: 1
  Characteristic symptoms (phenotype): Chlorosis and leaf curling
  Dev. leafCurling: 2
  Dev. leafTwisting: 1
  Dev. matureLeafAnthocyanins: 0
  Dev. matureLeafChlorosis: 3
  Dev. matureLeafNecrosis: 0
  Dev. newLeafAnthocyanins: 0
  Dev. newLeafChlorosis: 3
  Dev. newLeafNecrosis: 0
  Dev. pointedLeaves: 1
  Dev. leafWidth: −2
  Symptom Class: 3
Arabidopsis thaliana [4]
  Hierarchical cluster analysis of the eleven phenotypic characteristics / phenotype: clustered with amitrole

## O=C(O)CNCP(=O)(O)O [Glyphosate]
Magnaporthe grisea; [6]
  Growth of M. grisea with ammonium or glutamine provided: Little growth defect
  Growth of M. grisea with nitrate, nitrite, or glutamate as the sole nitrogen source: inhibited growth
Arabidopsis thaliana [2]; after one hour
  Tyrosine level (metabolite downstream from the SOA): decreased relative to the control after one hour
[3]
  Dev. tMic: 2
  Characteristic symptoms (phenotype): anthocyanin accumulation in the older leaves accompanied by chlorosis of the newly emerging leaves
  Dev. leafCurling: 0
  Dev. leafTwisting: 0
  Dev. matureLeafAnthocyanins: 3
  Dev. matureLeafChlorosis: 1
  Dev. matureLeafNecrosis: 3
  Dev. newLeafAnthocyanins: 1
  Dev. newLeafChlorosis: 2
  Dev. newLeafNecrosis: 0
  Dev. pointedLeaves: 1
  Dev. leafWidth: 0
  Symptom Class: 4
Arabidopsis thaliana [4]
  Hierarchical cluster analysis of the eleven phenotypic characteristics / phenotype: clustered with amitrole

## CC(=O)N1CCN(c2ccc(OCC3COC(Cn4ccnc4)(c4ccc(Cl)cc4Cl)O3)cc2)CC1 (centres unmarked) [Ketoconazole]
[5]; P < 0.1, yeast, 2x MIC, two hours
  # Compounds perturbed by treatment: 15
[1]
  # Reactions (title: Number Of Pathways Having at Least One Enzyme and One Compound Perturbed): 24

## CC[C@@H]([C@H](C)O)n1ncn(-c2ccc(N3CCN(c4ccc(OC[C@@H]5CO[C@@](Cn6cncn6)(c6ccc(F)cc6F)C5)cc4)CC3)cc2)c1=O [Posaconazole]
[5]; metabolite NacetylD-glucosamine, platform nLC
  Fold Change: 0
[5]; metabolite NacetylD-glucosamine, platform pLC
  Fold Change: 0
[5]; metabolite NacetylL-glutamate, platform pLC
  Fold Change: 0
[5]; metabolite NacetylL-ornithine, platform nLC
  Fold Change: 0
[5]; metabolite niacinamide, platform pLC
  Fold Change: 0
[5]; metabolite nopaline, platform pLC
  Fold Change: 0
[5]; metabolite ornithine3, platform GC
  Fold Change: 0.041
[5]; metabolite orotic acid, platform nLC
  Fold Change: 0
[5]; metabolite phenylpyruvic acid, platform nLC
  Fold Change: 0
[5]; metabolite phosphoenolpyruvate, platform nLC
  Fold Change: 0
[5]; metabolite phosphoenolpyruvate, platform pLC
  Fold Change: 0
[5]; metabolite pinitol, platform nLC
  Fold Change: 0
[5]; metabolite porphobilinogen, platform nLC
  Fold Change: 0
[5]; metabolite progesterone, platform pLC
  Fold Change: 0
[5]; metabolite retinoic acid, platform nLC
  Fold Change: 0
[5]; metabolite riboflavin, platform pLC
  Fold Change: 0
[5]; metabolite salicylic/HObenzoic, platform nLC
  Fold Change: 0
[5]; metabolite shikimic acid, platform nLC
  Fold Change: 0
[5]; metabolite sinapinic acid, platform nLC
  Fold Change: 0
[5]; metabolite sugar-phosphate, platform pLC
  Fold Change: 0
[5]; metabolite thiamine, platform pLC
  Fold Change: 0
[5]; metabolite thymine, platform nLC
  Fold Change: 0
[5]; metabolite thymine, platform pLC
  Fold Change: 0
[5]; metabolite tryptophan, platform pLC
  Fold Change: 0
[5]; metabolite uric acid, platform pLC
  Fold Change: 0
[5]; metabolite urocanic acid, platform nLC
  Fold Change: 0
[5]; metabolite urocanic acid, platform pLC
  Fold Change: 0
[5]; metabolite xanthosine (diH2O), platform pLC
  Fold Change: 0
[5]; metabolite xanthosine-DiH2O, platform nLC
  Fold Change: 0
[5]; metabolite zeatin, platform nLC
  Fold Change: 0
[5]; metabolite zeatin, platform pLC
  Fold Change: 0
[1]
  # Reactions (title: Number Of Pathways Having at Least One Enzyme and One Compound Perturbed): 3
